Laboratory results published in ChEMBL document CHEMBL1165907, “A comparative study of flavonoid analogues on streptozotocin-nicotinamide induced diabetic rats: quercetin as a potential antidiabetic agent acting via 11beta-hydroxysteroid dehydrogenase type 1 inhibition” (2010).

Columns and labels:
Rattus norvegicus [1] = assay: Antidiabetic activity in STZ-induced Wistar rat assessed as reduction in blood glucose level at 50 mg/kg, ig after 1 day relative to control; format: functional; design: scale not given: the % may be the effect or the level left; settings: route intragastric
Rattus norvegicus [2] = assay: Antidiabetic activity in STZ-induced Wistar rat assessed as reduction in blood glucose level at 50 mg/kg, ig after 3 day relative to control; format: functional; design: scale not given: the % may be the effect or the level left; settings: route intragastric
Rattus norvegicus [3] = assay: Antidiabetic activity in Wistar rat assessed as change in blood glucose level at 50 mg/kg, ig after 1 hr (RVb = 20.18 % +/- 8.49%); format: functional; settings: route intragastric
Rattus norvegicus [4] = assay: Antidiabetic activity in STZ-induced Wistar rat assessed as reduction in blood glucose level at 50 mg/kg, ig after 5 day relative to control; format: functional; design: scale not given: the % may be the effect or the level left; settings: route intragastric
Rattus norvegicus [5] = assay: Antidiabetic activity in STZ-induced Wistar rat assessed as reduction in blood glucose level at 50 mg/kg, ig after 2 day relative to control; format: functional; design: scale not given: the % may be the effect or the level left; settings: route intragastric
Rattus norvegicus [6] = assay: Antidiabetic activity in Wistar rat assessed as change in blood glucose level at 50 mg/kg, ig after 7 hrs (RVb = -10.51% +/- 5.53%); format: functional; settings: route intragastric
Rattus norvegicus [7] = assay: Hypoglycemic activity in Wistar rat assessed as change in blood glucose level at 50 mg/kg, ig after 5 hrs (RVb = 1.21+/- 3.64 %); format: functional; settings: route intragastric
Rattus norvegicus [8] = assay: Hypoglycemic activity in Wistar rat assessed as change in blood glucose level at 50 mg/kg, ig after 7 hrs (RVb = -3.59 +/- 2.65 %); format: functional; settings: route intragastric
Rattus norvegicus [9] = assay: Antidiabetic activity in Wistar rat assessed as change in blood glucose level at 50 mg/kg, ig after 3 hrs (RVb = -9.83 % +/- 5.67%); format: functional; settings: route intragastric
Rattus norvegicus [10] = assay: Antidiabetic activity in STZ-induced Wistar rat assessed as reduction in blood glucose level at 50 mg/kg, ig after 4 day relative to control; format: functional; design: scale not given: the % may be the effect or the level left; settings: route intragastric
Rattus norvegicus [11] = assay: Hypoglycemic activity in Wistar rat assessed as change in blood glucose level at 50 mg/kg, ig after 1 hr (RVb = 10.96 +/- 3.67 %); format: functional; settings: route intragastric
Rattus norvegicus [12] = assay: Hypoglycemic activity in Wistar rat assessed as change in blood glucose level at 50 mg/kg, ig after 3 hrs (RVb = 1.39 +/- 5.895 %); format: functional; settings: route intragastric
Rattus norvegicus [13] = assay: Antidiabetic activity in Wistar rat assessed as change in blood glucose level at 50 mg/kg, ig after 5 hrs (RVb = -1.17% +/- 8.77%); format: functional; settings: route intragastric
[14] = target: 11-beta-hydroxysteroid dehydrogenase 1 (Homo sapiens) (UniProt P28845); assay: Inhibition of human 11beta HSD1 in HEK293 cells at 10 uM; format: cell-based
Sequence of 11-beta-hydroxysteroid dehydrogenase 1 (Homo sapiens) (P28845 whole entry, looked up): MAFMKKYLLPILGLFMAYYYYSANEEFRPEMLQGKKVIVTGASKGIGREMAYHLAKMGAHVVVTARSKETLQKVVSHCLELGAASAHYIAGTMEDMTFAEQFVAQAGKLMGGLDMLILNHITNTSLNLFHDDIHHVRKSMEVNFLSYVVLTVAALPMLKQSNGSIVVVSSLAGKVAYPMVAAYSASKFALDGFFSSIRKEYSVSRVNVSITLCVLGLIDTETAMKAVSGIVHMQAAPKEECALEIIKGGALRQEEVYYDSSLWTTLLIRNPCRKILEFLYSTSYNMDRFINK

Work on `O=c1cc(-c2ccccc2)oc2ccc(O)cc12` [6-HYDROXYFLAVONE] yielded an Activity (Rattus norvegicus [1]) of 16.9%, an Activity (Rattus norvegicus [2]) of 13.15% and an Activity (Rattus norvegicus [3]) of -13.08%. For the same compound, the Activity (Rattus norvegicus [4]) was 34.7%, the Activity (Rattus norvegicus [5]) was 6.6% and the Activity (Rattus norvegicus [6]) was -25.42%. For the same compound, the Activity (Rattus norvegicus [7]) was 6.41%, the Activity (Rattus norvegicus [8]) was -0.93% and the Activity (Rattus norvegicus [9]) was -11.07%. The Activity (Rattus norvegicus [10]) was 2.53%, the Activity (Rattus norvegicus [11]) was -16.21% and the Activity (Rattus norvegicus [12]) was 6.51%. The Activity (Rattus norvegicus [13]) was -19.81%.

In the case of `O=c1cc(-c2ccccc2)oc2cc(O)ccc12` [7-HYDROXYFLAVONE], the Activity (Rattus norvegicus [1]) was 8.8%, the Activity (Rattus norvegicus [2]) was 36% and the Activity (Rattus norvegicus [3]) was -12.79%. For the same compound, the Activity (Rattus norvegicus [4]) was 38.5%, the Activity (Rattus norvegicus [5]) was 35.5% and the Activity (Rattus norvegicus [6]) was -12.18%. The Activity (Rattus norvegicus [7]) was 7.39%, the Activity (Rattus norvegicus [8]) was -4.81% and the Activity (Rattus norvegicus [9]) was -12.69%. For the same compound, the Activity (Rattus norvegicus [10]) was 20.4%, the Activity (Rattus norvegicus [11]) was 5.05% and the Activity (Rattus norvegicus [12]) was -6.19%. For the same compound, the Activity (Rattus norvegicus [13]) was -10.03%.

With `O=c1cc(-c2ccccc2)oc2cc(O)cc(O)c12` [CHRYSIN] the Activity (Rattus norvegicus [1]) was 7.07%, the Activity (Rattus norvegicus [2]) was 5.2% and the Activity (Rattus norvegicus [3]) was -1.7%. It also gave an Activity (Rattus norvegicus [4]) of 17.17%, an Activity (Rattus norvegicus [5]) of 19.6% and an Activity (Rattus norvegicus [6]) of -35.5%. For the same compound, the Activity (Rattus norvegicus [7]) was -17.08%, the Activity (Rattus norvegicus [8]) was -9.42% and the Activity (Rattus norvegicus [9]) was -9.96%. The Activity (Rattus norvegicus [10]) was 0.5%, the Activity (Rattus norvegicus [11]) was -9.27% and the Activity (Rattus norvegicus [12]) was -19.98%. For the same compound, the Activity (Rattus norvegicus [13]) was -10.41%.

`O=c1cc(-c2ccccc2)oc2ccccc12` [FLAVONE] showed an Activity (Rattus norvegicus [1]) of 0.05%, an Activity (Rattus norvegicus [2]) of 19.5% and an Activity (Rattus norvegicus [3]) of 13.53%. For the same compound, the Activity (Rattus norvegicus [4]) was 10.8%, the inhibition [14] was 16% and the Activity (Rattus norvegicus [5]) was 32.76%. It also gave an Activity (Rattus norvegicus [6]) of -39.69%, an Activity (Rattus norvegicus [7]) of -24.7% and an Activity (Rattus norvegicus [8]) of -11.65%. The Activity (Rattus norvegicus [9]) was -10.02%, the Activity (Rattus norvegicus [10]) was 10.6% and the Activity (Rattus norvegicus [11]) was -16.16%. It also gave an Activity (Rattus norvegicus [12]) of -21.56% and an Activity (Rattus norvegicus [13]) of -21.41%.

Compound `O=c1c(O)c(-c2ccccc2)oc2ccccc12` [FLAVONOL] has an Activity (Rattus norvegicus [1]) of 2.09%, an Activity (Rattus norvegicus [2]) of 35.7% and an Activity (Rattus norvegicus [3]) of 1.93%. It also gave an Activity (Rattus norvegicus [4]) of 9.2%, an Activity (Rattus norvegicus [5]) of 7.7% and an Activity (Rattus norvegicus [6]) of -16.04%. The Activity (Rattus norvegicus [7]) was -2.36%, the Activity (Rattus norvegicus [8]) was -10.05% and the Activity (Rattus norvegicus [9]) was -5.92%. The Activity (Rattus norvegicus [10]) was 60.1%, the Activity (Rattus norvegicus [11]) was -6.04% and the Activity (Rattus norvegicus [12]) was -20.2%. It also gave an Activity (Rattus norvegicus [13]) of -15.66%.

In the case of `COc1ccc(Cl)cc1C(=O)NCCc1ccc(S(=O)(=O)NC(=O)NC2CCCCC2)cc1` [GLYBURIDE], the Activity (Rattus norvegicus [1]) was 33.2%, the Activity (Rattus norvegicus [2]) was 38.5% and the Activity (Rattus norvegicus [3]) was -21.93%. For the same compound, the Activity (Rattus norvegicus [4]) was 40%, the Activity (Rattus norvegicus [5]) was 32.2% and the Activity (Rattus norvegicus [6]) was -42.52%. The Activity (Rattus norvegicus [7]) was -24.78%, the Activity (Rattus norvegicus [8]) was -23.77% and the Activity (Rattus norvegicus [9]) was -24.93%. The Activity (Rattus norvegicus [10]) was 50%, the Activity (Rattus norvegicus [11]) was -8.29% and the Activity (Rattus norvegicus [12]) was -21.71%. It also gave an Activity (Rattus norvegicus [13]) of -43.88%.

Work on `O=c1c(O)c(-c2ccc(O)c(O)c2)oc2cc(O)cc(O)c12` [QUERCETIN] yielded an Activity (Rattus norvegicus [1]) of 10.8%, an Activity (Rattus norvegicus [2]) of 27% and an Activity (Rattus norvegicus [3]) of -2.37%. For the same compound, the Activity (Rattus norvegicus [4]) was 3.7%, the inhibition [14] was 27% and the Activity (Rattus norvegicus [5]) was 13.3%. It also gave an Activity (Rattus norvegicus [6]) of -42.62%, an Activity (Rattus norvegicus [7]) of -10.74% and an Activity (Rattus norvegicus [8]) of -17.85%. For the same compound, the Activity (Rattus norvegicus [9]) was -17.28%, the Activity (Rattus norvegicus [10]) was 21.3% and the Activity (Rattus norvegicus [11]) was -16.19%. It also gave an Activity (Rattus norvegicus [12]) of -21.1% and an Activity (Rattus norvegicus [13]) of -52.68%.
